Source: patent US10051861B2, “N-arylamidine-substituted trifluoroethyl sulfide derivatives as acaricides and insecticides” (BAYER CROPSCIENCE AG, priority 2011, dated 2018)
Like-named read-outs stand apart in the source and are kept apart here. Marks after values point to notes of the source that are not given here.

Assays:
[1] = logP by HPLC on reversed-phase columns (C 18), EEC Directive 79/831 Annex V.A8; assay type: physicochemical
Protocol: Calibration is carried out using unbranched alkan-2-ones (having from 3 to 16 carbon atoms) with known log P values (the log P values are determined by the retention times using linear interpolation between two successive alkanones).

[2] = test system: greenhouse red spider mite (Tetranychus urticae); experiment: Tetranychus urticae spray test, OP-resistant (TETRUR), bean leaf disks; assay type: in vivo; settings: for pest or weed control at 500 g/ha: Tetranychus urticae, foliar, 144 h, read-out: efficacy (spider mites killed)
Protocol: After 6 days, the effect in % is determined.

[3] = [a] LC-MS, acidic range, pH 2.7, 0.1% aqueous formic acid/acetonitrile
[4] = reversed-phase C18 HPLC column, pH 2.7, [a] LC-MS, acidic range, pH 2.7, 0.1% aqueous formic acid/acetonitrile, read-out: logP(HCOOH)
[5] = reversed-phase C18 HPLC column, pH 7.8, [b] LC-MS, neutral range, pH 7.8, 0.001 molar aqueous ammonium bicarbonate/acetonitrile, read-out: logP(neutral)
[6] = application rate 500 g/ha, after 6 days
[7] = [a] LC-MS, acidic range, pH 2.7, 0.1% aqueous formic acid/acetonitrile, read-out: logP(HCOOH)
[8] = [b] LC-MS, neutral range, pH 7.8, 0.001 molar aqueous ammonium bicarbonate/acetonitrile, read-out: logP(neutral)

SMILES | chromatographic logP [1, 4] | chromatographic logP [1, 5] | also measured
Cc1cc(F)c(NC(=S)NCC(F)(F)F)cc1[S+]([O-])CC(F)(F)F (stereo not drawn) | – | – | logP(HCOOH) [1, 3]: 2.34; logP(neutral) ([1]; [b] LC-MS, neutral range, pH 7.8, 0.001 molar aqueous ammonium bicarbonate/acetonitrile): 2.30
Cc1cc(C)c(SCC(F)(F)F)cc1N=C1NCCO1 [2,4-Dimethyl-N-[1,3-oxazolidin-2-ylidene]-5-[(2,2,2-trifluoroethyl)sulfanyl]aniline] | – | – | chromatographic logP ([1]; pH 2.7, logP(HCOOH)): 1.36
Cc1cc(F)c(N=C2NCCS2)cc1[S+]([O-])CC(F)(F)F (stereo not drawn) [2-Fluoro-4-methyl-N-[1,3-thiazolidin-2-ylidene]-5-[(2,2,2-trifluoroethyl)sulfinyl]aniline] | 0.8 | – | –
Cc1cc(F)c(/N=C2\CCCN2c2ccccc2)cc1SCC(F)(F)F [2-Fluoro-4-methyl-N-[(2E)-1-phenylpyrrolidin-2-ylidene]-5-[(2,2,2-trifluoroethyl)sulfanyl]aniline] | 1.83 | 4.92 | –
Nc1cccc(SCC(F)(F)F)c1 [3-[(2,2,2-Trifluoroethyl)sulfanyl]aniline] | 2.01 | – | –
Cc1cc(F)c(SCC(F)(F)F)cc1NC(=O)C(F)(F)F [III-4, 2,2,2-Trifluoro-N-{4-fluoro-2-methyl-5-[(2,2,2-trifluoroethyl)sulfanyl]phenyl}acetamide] | 3.16 | 3.1 | –
O=C(Nc1cc(SCC(F)(F)F)c(Br)cc1Cl)C(F)(F)F [III-5, N-{4-Bromo-2-chloro-5-[(2,2,2-trifluoroethyl)sulfanyl]phenyl}-2,2,2-trifluoroacetamide] | 3.78 | – | –
O=C(Nc1cc(SCC(F)(F)F)c(Br)cc1Br)C(F)(F)F [III-6, N-{2,4-Dibromo-5-[(2,2,2-trifluoroethyl)sulfanyl]phenyl}-2,2,2-trifluoroacetamide] | 3.81 | – | –
O=C(Nc1cc(SCC(F)(F)F)c(F)cc1Cl)C(F)(F)F [III-7, N-{2-Chloro-4-fluoro-5-[(2,2,2-trifluoroethyl)sulfanyl]phenyl}-2,2,2-trifluoroacetamide] | 3.33 | 3.11 | –
O=C(Nc1cc(SCC(F)(F)F)c(Br)cc1Cl)C(F)(F)F [III-9, N-{4-Bromo-2-chloro-5-[(2,2,2-trifluoroethyl)sulfanyl]phenyl}-2,2,2-trifluoroacetamide] | – | 3.11 | logP(HCOOH) [1, 3]: 3.46
Cc1cc(F)c(SSc2cc(NC(=O)C(F)(F)F)c(C)cc2F)cc1NC(=O)C(F)(F)F [IV-2, N,N′-[Disulfanediylbis(4-fluoro-6-methylbenzene-3,1-diyl)]bis(2,2,2-trifluoroacetamide)] | 4 | 3.92 | –
O=C(Nc1cc(SSc2cc(NC(=O)C(F)(F)F)c(Cl)cc2Br)c(Br)cc1Cl)C(F)(F)F [IV-3, N,N′-[Disulfanediylbis(4-bromo-6-chlorobenzene-3,1-diyl)]bis(2,2,2-trifluoroacetamide)] | 5.42 | – | –
O=C(Nc1cc(SSc2cc(NC(=O)C(F)(F)F)c(Br)cc2Br)c(Br)cc1Br)C(F)(F)F [IV-4, N,N′-[Disulfanediylbis(4,6-dibromobenzene-3,1-diyl)]bis(2,2,2-trifluoroacetamide)] | 5.62 | 4.49 | –
O=C(Nc1cc(SSc2cc(NC(=O)C(F)(F)F)c(Cl)cc2F)c(F)cc1Cl)C(F)(F)F [IV-5, N,N′-[Disulfanediylbis(6-chloro-4-fluorobenzene-3,1-diyl)]bis(2,2,2-trifluoroacetamide)] | 4.45 | 3.81 | –
O=C(Nc1cc(SSc2cc(NC(=O)C(F)(F)F)c(F)cc2Br)c(Br)cc1F)C(F)(F)F [IV-7, N,N′-[Disulfanediylbis(4-bromo-6-fluorobenzene-3,1-diyl)]bis(2,2,2-trifluoroacetamide)] | 4.76 | 4.02 | –
Cc1cc(F)c(N=C(NS(C)(=O)=O)C(F)(F)F)cc1SCC(F)(F)F [Ia-11] | – | – | logP(HCOOH) ([1]; pH 2.7): 3.05^[a]; efficacy (spider mites killed) [2, 6]: 100%
Cc1cc(F)c(SCC(F)(F)F)cc1N=C(N(C)C)C(F)(F)F [Ia-24] | – | – | logP(HCOOH) ([1]; pH 2.7): 4.53; logP(neutral) ([1]; pH 7.8): 4.47
Cc1cc(F)c(/N=C(/NCC2CC2)C(F)(F)F)cc1SCC(F)(F)F [Ia-41] | 4.62 | – | pest or weed control at 500 g/ha [2, 6]: 100%
Cc1cc(F)c(/N=C(/NCc2ccc(C(F)(F)F)cc2)C(F)(F)F)cc1SCC(F)(F)F [Ia-89] | 5.15 | 5.15 | pest or weed control at 500 g/ha [2, 6]: 100%
Cc1cc(F)c(/N=C(/Nc2ccccc2)C(F)(F)F)cc1SCC(F)(F)F [Ia-96] | 4.37 | 4.37 | pest or weed control at 500 g/ha [2, 6]: 100%

SMILES | chromatographic logP [1, 4] | chromatographic logP [1, 5] | also measured
Cc1cc(F)c(/N=C(\N)c2cnccn2)cc1SCC(F)(F)F [Ia-117, N′-{2-Fluoro-4-methyl-5-[(2,2,2-trifluoroethyl)sulfanyl]phenyl}pyrazine-2-carboximidamide] | 1.24 | – | pest or weed control at 500 g/ha [2, 6]: 90%
COc1ccc(N/C(=N/c2cc(SCC(F)(F)F)c(C)cc2F)C(F)(F)F)cc1 [Ia-129] | 4.2 | 4.2 | pest or weed control at 500 g/ha [2, 6]: 100%
Cc1cc(F)c(N=C(N)c2ccccc2F)cc1SCC(F)(F)F [Ia-143] | 1.37 | 3.25 | –
Cc1cc(F)c(/N=C(\NCC(F)(F)F)C2CC2)cc1SCC(F)(F)F [Ia-145, N′-{2-fluoro-4-methyl-5-[(2,2,2-trifluoroethyl)sulfanyl]phenyl}-N-(2,2,2-trifluoroethyl)cyclopropanecarboximidamide] | 1.99 | 4.12 | pest or weed control at 500 g/ha [2, 6]: 100%
CN/C(=N/c1cc(SCC(F)(F)F)c(C)cc1F)c1ccc(OC)cc1 [Ia-165] | 1.68 | 3.49 | pest or weed control at 500 g/ha [2, 6]: 100%
Cc1cc(F)c(/N=C(\c2ccco2)N(C)C)cc1SCC(F)(F)F [Ia-166, N′-{2-Fluoro-4-methyl-5-[(2,2,2-trifluoroethyl)sulfanyl]phenyl}-N,N-dimethylfuran-2-carboximidamide] | 1.57 | 3.94 | pest or weed control at 500 g/ha [2, 6]: 100%
Cc1cc(F)c(/N=C2\SCC(=O)N2CC(F)(F)F)cc1SCC(F)(F)F [Ia-175, 2-({2-Fluoro-4-methyl-5-[(2,2,2-trifluoroethyl)sulfanyl]phenyl}imino)-3-(2,2,2-trifluoroethyl)-1,3-thiazolidin-4-one] | 4.09 | 3.99 | pest or weed control at 500 g/ha [2, 6]: 90%
CN/C(=N/c1cc(SCC(F)(F)F)c(C)cc1F)c1ccc(C(F)(F)F)cc1 [Ia-250, N′-{2-Fluoro-4-methyl-5-[(2,2,2-trifluoroethyl)sulfanyl]phenyl}-N-methyl-4-(trifluoromethyl)benzenecarboximidamide] | 1.96 | 4.08 | pest or weed control at 500 g/ha [2, 6]: 90%
Cc1cc(F)c(/N=C(\NCC2CCC(C(F)(F)F)CC2)C2CC2)cc1SCC(F)(F)F (stereo not drawn) [Ia-251] | 2.23 | – | pest or weed control at 500 g/ha [2, 6]: 90%
Cc1cc(F)c(/N=C2/NCCCS2)cc1SCC(F)(F)F [Ia-278, 2-fluoro-4-methyl-N-[1,3-thiazinan-2-ylidene]-5-[(2,2,2-trifluoroethyl)sulfanyl]anilinium chloride] | – | – | chromatographic logP [1, 7]: 1.34; pest or weed control at 500 g/ha [2]: 90%
Cc1cc(F)c(/N=C2\CCCN2c2ccccc2)cc1[S+]([O-])CC(F)(F)F (stereo not drawn) [Ib-55, 2-Fluoro-4-methyl-N-[(2E)-1-phenylpyrrolidin-2-ylidene]-5-[(2,2,2-trifluoroethyl)sulfinyl]aniline] | 1.27 | 3.47 | –
COc1ccccc1/C(=N\c1cc([S+]([O-])CC(F)(F)F)c(C)cc1F)N(C)C (stereo not drawn) [Ib-161] | 1.28 | 2.95 | –
COc1cc(C)c(SSc2cc(NC(C)=O)c(OC)cc2C)cc1NC(C)=O [N,N′-[Disulfanediylbis(6-methoxy-4-methylbenzene-3,1-diyl)]diacetamide] | 2.73 | – | –
Cc1cc(F)c(NC(=O)c2ccc(C(F)(F)F)cc2)cc1SCC(F)(F)F [N-{2-Fluoro-4-methyl-5-[(2,2,2-trifluoroethyl)sulfanyl]phenyl}-4-(trifluoromethyl)benzamide] | 4.2 | 4.17 | –
FC(F)(F)CSc1cc(N=C(Cl)C(F)(F)F)ccc1Cl [N-{4-Chloro-3-[(2,2,2-trifluoroethyl)sulfanyl]phenyl}-2,2,2-trifluoroethanimidoyl chloride] | 4.77 | 4.73 | –
Cc1cc(F)ccc1NC(=O)C(F)(F)F [VI-2, 2,2,2-Trifluoro-N-(4-fluoro-2-methylphenyl)acetamide] | 2.2 | 2.19 | –
O=C(Nc1ccc(Br)cc1Cl)C(F)(F)F [VI-3, N-(4-Bromo-2-chlorophenyl)-2,2,2-trifluoroacetamide] | – | – | chromatographic logP [1, 7]: 3.01; chromatographic logP [1, 8]: 2.81
O=C(Nc1ccc(Br)cc1Br)C(F)(F)F [VI-4, N-(2,4-Dibromophenyl)-2,2,2-trifluoroacetamide] | – | – | chromatographic logP [1, 7]: 3.1; chromatographic logP [1, 8]: 2.89
O=C(Nc1ccc(F)cc1Cl)C(F)(F)F [VI-5, N-(2-Chloro-4-fluorophenyl)-2,2,2-trifluoroacetamide] | – | – | chromatographic logP [1, 7]: 2.46; chromatographic logP [1, 8]: 2.31
O=C(Nc1ccc(Br)cc1F)C(F)(F)F [VI-7, N-(4-Bromo-2-fluorophenyl)-2,2,2-trifluoroacetamide] | – | – | chromatographic logP [1, 7]: 2.73; chromatographic logP [1, 8]: 2.51
